pIC50: −log10 of the molar value. Blank lines part the entries; values can stand above or below the molecule they belong to.
Key:
[1] = target: T1, EGFR^L858R (Homo sapiens, UniProt P00533, L858R); experiment: HTRF cellular assay in human cancer cells H3255; format: cell-based; details: read-out: IC50 H3255 EGFR LR
T1 construct: expressing WT EGFR, EGFR^L858R or EGFR^L858R/T790M; host or cells: NCI-H3255
Protocol: (§1) NCI-H3255 cells were obtained from the NCI (#CVCL_6831). Cells were maintained in a humidified incubator at 37° C. and 5% CO2. […] Verification of cell line identities and absence of cross-contaminations by other cell lines was performed through Short Tandem Repeats-PCR analysis (only human cell lines) and MALDI-TOF analysis. […] All cell lines were used for no more than 20 passages after thawing for all described experiments.
Control wells with medium only were also prepared. […] Plates were incubated at 37° C. for 4 hours. […] The cells were eventually lysed in HTRF lysis buffer provided by the kit (see below) and stored at −80° C. until further use. HTRF assay for pEGFR (CisBio #64EG1PEH) or pERK (CisBio #64AERPEH) was then performed according to the manufacturer's instructions.

[2] = target: T2, EGFR kinase domain (L858R) (Homo sapiens, UniProt P00533, L858R); experiment: Binding kinetics measured by stopped-flow fluorescence
T2 construct: osimertinib reacts faster with the EGFR kinase domain (L858R)
Source text: FIG. 3 (A) Binding kinetics measured by stopped-flow fluorescence. […].

[3] = In vitro metabolic stability, intrinsic clearance in hepatocytes; format: in vitro ADME; details: primary pooled cryopreserved hepatocytes in suspension
Protocol: The in vitro metabolic stability was assessed in human and […] short-term hepatocytes suspensions. Primary pooled cryopreserved hepatocytes obtained from BioIVT (Westbury, NY, USA) were thawed and suspended in William's E medium supplemented with 10% fetal bovine serum. The suspended hepatocytes were pre-incubated at 37° C. (5% CO2) and reactions were initiated by adding the compound. Final assay conditions were 1 μM compound (final assay solvent concentration 0.01% DMSO), 1×10^6 hepatocytes/mL incubate. The mixtures were then incubated up to 2 hours at 37° C.′ (5% CO2). The reactions were stopped by placing samples on dry ice before storage at −80° C. until analysis by LC-MS/MS. The natural logarithm of the percentage initial drug concentration in the incubation samples was plotted against time and a linear regression analysis was applied using GraphPad Prism version 7.04 for Windows (GraphPad Software, La Jolla, CA) to define the slope. The in vitro hepatocyte intrinsic hepatocyte clearance rate (CLint) was calculated from the slope of the linear regression,-slope, with V representing the volume of the incubation in μL and N as the number of hepatocytes per incubation as detailed in Equation X: […]

[4] = target: T3, EGFR WT (Homo sapiens, UniProt P00533); experiment: HTRF cellular assay in human cancer cells H2073; format: cell-based; design: expressing WT EGFR; host or cells: NCI-H2073; details: EGF 25 ng/ml
[5] = target: T4, EGFR^L858R/T790M (Homo sapiens, UniProt P00533, L858R/T790M); experiment: HTRF cellular assay in human cancer cells H1975; format: cell-based; details: read-out: IC50 H1975 EGFR LRTM
T4 construct: expressing WT EGFR, EGFR^L858R or EGFR^L858R/T790M; host or cells: NCI-H1975

[6] = system: Ba/F3 EGFR^L858R/C797S allograft; experiment: In vivo efficacy, Ba/F3 EGFR^L858R/C797S allograft; design: species or system mice; details: Example 6 at 10 mpk, Example 3 at 30 mpk, BID po
[7] = target: Ba/F3 cell lines stably expressing EGFR^L858R/C797S (Homo sapiens, UniProt P00533, C797S/L858R, cells depend on it); experiment: Cell viability assay (cell titer glo); format: cell-based; details: 72 hours, first value of IC50/IC90
[8] = system: NCI-H1975 NSCLC-derived tumors (EGFR^L858R/T790M xenograft); experiment: In vivo efficacy, NCI-H1975 xenograft; details: alone and in combination with osimertinib, mice
[9] = target: T3, EGFR WT; experiment: HTRF cellular assay in human cancer cells A431; format: cell-based; design: expressing WT EGFR, EGFR^L858R or EGFR^L858R/T790M; #CRL-1555 (A431); host or cells: NCI-H2073; A431; details: EGF 25 ng/ml
[10] = target: Ba/F3 cell lines stably expressing EGFR^L858R/T790M/C797S (Homo sapiens, UniProt P00533, T790M/C797S/L858R, cells depend on it); experiment: Cell viability assay (cell titer glo); format: cell-based
Protocol: as §1
Plates were incubated for 72 hours at 37° C. After treatment with compounds, 25 μl/well CellTiter-Glo 2.0 reagent (Promega #G9243) were added and plates were incubated for 10 min at RT and luminescence was quantified according to the manufacturer's protocol.

T3 sequence (P00533 25-1210): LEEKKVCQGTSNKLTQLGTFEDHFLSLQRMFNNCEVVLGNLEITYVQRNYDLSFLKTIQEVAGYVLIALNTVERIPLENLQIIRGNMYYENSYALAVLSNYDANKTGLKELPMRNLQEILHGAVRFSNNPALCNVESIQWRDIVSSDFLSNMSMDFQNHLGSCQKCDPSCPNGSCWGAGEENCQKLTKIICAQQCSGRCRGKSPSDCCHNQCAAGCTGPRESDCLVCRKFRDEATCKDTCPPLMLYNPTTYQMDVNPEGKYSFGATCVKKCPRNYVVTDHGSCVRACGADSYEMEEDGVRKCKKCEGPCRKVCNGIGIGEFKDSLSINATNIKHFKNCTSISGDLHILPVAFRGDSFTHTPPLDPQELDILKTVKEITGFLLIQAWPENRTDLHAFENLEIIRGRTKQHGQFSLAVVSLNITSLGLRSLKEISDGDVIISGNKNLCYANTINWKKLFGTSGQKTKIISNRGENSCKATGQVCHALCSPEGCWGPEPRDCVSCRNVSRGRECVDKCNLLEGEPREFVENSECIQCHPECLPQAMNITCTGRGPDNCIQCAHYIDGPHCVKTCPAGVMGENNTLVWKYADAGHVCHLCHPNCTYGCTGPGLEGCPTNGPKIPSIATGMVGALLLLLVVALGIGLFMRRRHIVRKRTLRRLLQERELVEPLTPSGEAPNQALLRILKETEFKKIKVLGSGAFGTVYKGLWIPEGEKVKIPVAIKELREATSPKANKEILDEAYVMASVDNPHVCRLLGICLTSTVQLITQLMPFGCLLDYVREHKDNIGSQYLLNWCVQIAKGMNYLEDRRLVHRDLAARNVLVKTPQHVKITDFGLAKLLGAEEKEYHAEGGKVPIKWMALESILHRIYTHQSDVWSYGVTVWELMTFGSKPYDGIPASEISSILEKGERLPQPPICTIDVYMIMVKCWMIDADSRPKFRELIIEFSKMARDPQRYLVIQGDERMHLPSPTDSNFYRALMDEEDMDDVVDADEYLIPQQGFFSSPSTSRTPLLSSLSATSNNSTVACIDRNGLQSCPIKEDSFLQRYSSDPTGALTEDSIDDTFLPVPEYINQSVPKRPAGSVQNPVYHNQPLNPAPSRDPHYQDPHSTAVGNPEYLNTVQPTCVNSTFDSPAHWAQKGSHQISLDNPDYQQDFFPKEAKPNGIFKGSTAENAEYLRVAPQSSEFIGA
T4 sequence (P00533 25-1210 T790M/L858R): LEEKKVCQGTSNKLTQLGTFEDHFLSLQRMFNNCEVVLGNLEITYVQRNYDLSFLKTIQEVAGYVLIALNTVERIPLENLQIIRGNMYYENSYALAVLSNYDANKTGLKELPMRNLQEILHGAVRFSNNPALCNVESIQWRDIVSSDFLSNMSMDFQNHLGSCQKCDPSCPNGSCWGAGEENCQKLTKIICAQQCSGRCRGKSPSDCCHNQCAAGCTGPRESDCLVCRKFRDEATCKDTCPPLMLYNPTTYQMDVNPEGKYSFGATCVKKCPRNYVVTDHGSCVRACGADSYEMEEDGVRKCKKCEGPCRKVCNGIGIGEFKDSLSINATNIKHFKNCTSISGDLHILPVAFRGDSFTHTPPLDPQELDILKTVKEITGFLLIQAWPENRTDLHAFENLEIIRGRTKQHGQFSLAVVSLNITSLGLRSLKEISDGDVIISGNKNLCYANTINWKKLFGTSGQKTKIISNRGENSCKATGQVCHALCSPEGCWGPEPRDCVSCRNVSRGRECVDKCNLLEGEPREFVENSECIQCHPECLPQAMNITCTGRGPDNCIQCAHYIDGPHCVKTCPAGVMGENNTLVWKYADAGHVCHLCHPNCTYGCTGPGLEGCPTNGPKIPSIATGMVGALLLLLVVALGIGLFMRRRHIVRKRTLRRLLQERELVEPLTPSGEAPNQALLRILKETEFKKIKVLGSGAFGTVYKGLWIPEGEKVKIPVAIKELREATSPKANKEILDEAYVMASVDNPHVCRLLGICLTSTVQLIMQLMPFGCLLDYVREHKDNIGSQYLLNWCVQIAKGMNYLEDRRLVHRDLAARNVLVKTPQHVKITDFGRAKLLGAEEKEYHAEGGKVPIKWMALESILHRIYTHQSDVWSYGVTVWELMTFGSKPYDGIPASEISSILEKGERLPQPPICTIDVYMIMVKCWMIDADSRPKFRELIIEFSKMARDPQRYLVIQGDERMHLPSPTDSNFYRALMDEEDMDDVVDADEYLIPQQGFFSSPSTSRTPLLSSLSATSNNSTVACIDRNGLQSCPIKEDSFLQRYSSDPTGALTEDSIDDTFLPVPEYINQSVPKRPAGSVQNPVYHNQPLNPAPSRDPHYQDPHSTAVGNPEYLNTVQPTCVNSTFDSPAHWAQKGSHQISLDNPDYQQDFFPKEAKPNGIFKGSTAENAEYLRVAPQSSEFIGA
Sequence of Ba/F3 cell lines stably expressing EGFR^L858R/T790M/C797S (P00533 whole entry T790M/C797S/L858R): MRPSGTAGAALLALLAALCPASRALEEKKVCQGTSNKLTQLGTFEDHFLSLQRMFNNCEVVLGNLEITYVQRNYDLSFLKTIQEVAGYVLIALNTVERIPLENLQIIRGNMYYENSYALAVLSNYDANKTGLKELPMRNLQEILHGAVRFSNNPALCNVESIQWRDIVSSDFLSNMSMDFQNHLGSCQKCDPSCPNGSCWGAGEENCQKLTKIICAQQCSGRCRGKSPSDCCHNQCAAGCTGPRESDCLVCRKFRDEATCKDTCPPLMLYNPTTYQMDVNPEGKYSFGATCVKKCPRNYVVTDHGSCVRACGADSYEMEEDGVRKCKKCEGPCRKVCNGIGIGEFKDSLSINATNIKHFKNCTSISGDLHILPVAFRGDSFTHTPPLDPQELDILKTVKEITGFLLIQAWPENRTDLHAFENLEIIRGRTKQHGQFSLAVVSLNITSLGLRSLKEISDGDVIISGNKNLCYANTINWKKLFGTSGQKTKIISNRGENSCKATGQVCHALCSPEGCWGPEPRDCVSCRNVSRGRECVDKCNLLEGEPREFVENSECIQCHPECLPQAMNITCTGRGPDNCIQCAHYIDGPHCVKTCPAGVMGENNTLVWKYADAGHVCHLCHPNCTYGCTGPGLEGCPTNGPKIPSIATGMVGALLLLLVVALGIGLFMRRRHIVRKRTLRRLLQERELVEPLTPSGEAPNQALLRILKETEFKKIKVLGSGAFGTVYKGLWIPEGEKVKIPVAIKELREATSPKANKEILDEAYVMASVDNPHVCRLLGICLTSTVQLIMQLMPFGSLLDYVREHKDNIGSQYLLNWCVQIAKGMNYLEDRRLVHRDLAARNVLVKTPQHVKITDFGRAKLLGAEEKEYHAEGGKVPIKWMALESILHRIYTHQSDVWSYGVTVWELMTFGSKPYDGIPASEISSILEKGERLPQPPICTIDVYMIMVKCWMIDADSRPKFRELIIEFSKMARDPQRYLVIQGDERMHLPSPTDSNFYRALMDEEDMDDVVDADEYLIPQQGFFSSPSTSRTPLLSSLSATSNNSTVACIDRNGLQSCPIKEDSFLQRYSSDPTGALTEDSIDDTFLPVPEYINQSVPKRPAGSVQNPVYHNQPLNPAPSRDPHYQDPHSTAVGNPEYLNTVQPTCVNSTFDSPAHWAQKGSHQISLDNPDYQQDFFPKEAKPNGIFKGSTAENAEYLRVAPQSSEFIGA
T1 sequence (P00533 25-1210 L858R): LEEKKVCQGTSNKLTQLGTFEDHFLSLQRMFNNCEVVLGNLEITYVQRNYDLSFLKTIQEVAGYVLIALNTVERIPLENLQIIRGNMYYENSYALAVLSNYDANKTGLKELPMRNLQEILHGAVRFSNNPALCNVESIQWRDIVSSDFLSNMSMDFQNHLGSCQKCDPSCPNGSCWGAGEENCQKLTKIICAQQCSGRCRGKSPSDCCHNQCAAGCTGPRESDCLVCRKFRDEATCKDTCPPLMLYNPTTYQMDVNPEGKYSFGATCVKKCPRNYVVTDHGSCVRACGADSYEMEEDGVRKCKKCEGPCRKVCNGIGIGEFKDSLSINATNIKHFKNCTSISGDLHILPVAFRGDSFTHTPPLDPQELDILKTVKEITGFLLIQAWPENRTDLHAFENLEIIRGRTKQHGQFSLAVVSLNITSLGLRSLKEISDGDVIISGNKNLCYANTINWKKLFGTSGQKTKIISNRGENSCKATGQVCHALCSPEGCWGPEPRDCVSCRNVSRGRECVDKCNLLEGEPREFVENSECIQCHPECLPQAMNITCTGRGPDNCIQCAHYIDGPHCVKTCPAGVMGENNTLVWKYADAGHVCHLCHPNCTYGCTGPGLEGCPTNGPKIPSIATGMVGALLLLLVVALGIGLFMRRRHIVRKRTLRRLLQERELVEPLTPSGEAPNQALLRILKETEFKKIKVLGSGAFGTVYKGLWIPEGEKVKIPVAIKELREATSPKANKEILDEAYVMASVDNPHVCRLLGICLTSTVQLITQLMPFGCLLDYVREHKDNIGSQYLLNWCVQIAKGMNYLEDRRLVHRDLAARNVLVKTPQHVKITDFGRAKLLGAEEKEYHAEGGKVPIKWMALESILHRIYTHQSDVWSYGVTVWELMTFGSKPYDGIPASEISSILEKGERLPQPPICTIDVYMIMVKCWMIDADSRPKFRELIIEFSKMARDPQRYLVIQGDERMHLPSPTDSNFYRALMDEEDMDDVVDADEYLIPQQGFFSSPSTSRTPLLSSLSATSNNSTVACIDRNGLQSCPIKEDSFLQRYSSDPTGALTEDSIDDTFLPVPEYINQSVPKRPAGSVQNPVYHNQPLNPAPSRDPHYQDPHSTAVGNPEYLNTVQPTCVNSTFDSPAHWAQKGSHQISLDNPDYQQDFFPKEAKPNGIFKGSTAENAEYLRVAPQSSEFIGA
T2 sequence (P00533 712-979 L858R limits assumed): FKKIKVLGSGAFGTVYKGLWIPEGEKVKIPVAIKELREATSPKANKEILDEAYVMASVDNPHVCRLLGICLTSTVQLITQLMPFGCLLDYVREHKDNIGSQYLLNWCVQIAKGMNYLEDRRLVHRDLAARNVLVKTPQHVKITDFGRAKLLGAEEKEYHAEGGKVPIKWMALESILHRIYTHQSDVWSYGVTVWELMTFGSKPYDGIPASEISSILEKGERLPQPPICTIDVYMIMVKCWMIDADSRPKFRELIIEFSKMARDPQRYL

SMILES: O=C(Nc1nccs1)C(c1ncn2c1C[C@@H](F)C2)n1cc2c(Cl)cc(-c3ccc(N4CCOCC4)cc3)c(Cl)c2n1 (stereo partly drawn) [Example 1, 2-[4,7-Dichloro-6-(4-morpholinophenyl)indazol-2-yl]-2-[(6R)-6-fluoro-6,7-dihydro-5H-pyrrolo[1,2-c]imidazol-1-yl]-N-thiazol-2-yl-acetamide]
pIC50 [1]: 7.80
increase of the residence time of osimertinib ([2]; global fitting of the kinetic data, osimertinib in presence of the allosteric inhibitor): around 120 fold
reaction of osimertinib with the EGFR kinase domain (L858R) in presence of the allosteric inhibitor ([2]; stopped-flow fluorescence): reacts faster
hepatocyte CLint at 1 μM ([3]; human): 3.5 µL/min/1e6 cells
hepatocyte CLint at 1 μM ([3]; mouse): 16 µL/min/1e6 cells
pIC50 [4]: ~5.70
pIC50 [5]: 8.15

SMILES: Cc1c(-c2ccc(N3CCOCC3)cc2)cc(C(F)F)c2cn(C(C(=O)Nc3nccs3)c3ncn4c3CCC43CC3)nc12 (stereo not shown) [Example 3, 2-[4-(Difluoromethyl)-7-methyl-6-(4-morpholinophenyl)indazol-2-yl]-2-spiro[6,7-dihydropyrrol[1,2-c]imidazole-5,1′-cyclopropane]-1-yl-N-thiazol-2-yl-acetamide]
hepatocyte CLint at 1 μM ([3]; human): 5.9 µL/min/1e6 cells
hepatocyte CLint at 1 μM ([3]; mouse): 25 µL/min/1e6 cells
changes in body weight [6]: No significant changes in body weight

SMILES: O=C(Nc1nccs1)C(c1ncn2c1CCC2)n1cc2c(F)cc(C#Cc3ccc(CN4CCC(O)CC4)cc3)cc2n1 (stereo not shown) [Example 4, 2-(6,7-Dihydro-5H-pyrrolo[1,2-c]imidazol-1-yl)-2-(4-fluoro-6-((4-((4-hydroxypiperidin-1-yl)methyl)phenyl)ethynyl)-2H-indazol-2-yl)-N-(thiazol-2-yl)acetamide]
GI50 [7]: 800 nM

SMILES: O=C(Nc1nccs1)C(c1cc(F)ccc1O)N1Cc2ccc(-c3ccc(N4CCNCC4)cc3)cc2C1=O (stereo not shown) [JBJ-04-125-02, reference compound]
GI50 ([10]; 72 hours, first value of IC50/IC90): 30 nM
IC90 ([10]; read-out: Viability IC90 L858R/T790M/C797S, 72 hours, second value of IC50/IC90): 40 nM

Further lines, with some results ahead:

hepatocyte CLint at 1 μM ([3]; human): 6.1 µL/min/1e6 cells
hepatocyte CLint at 1 μM ([3]; mouse): 21 µL/min/1e6 cells
SMILES: Cc1c(-c2ccc(N3CCOCC3)cc2)cc(C(F)F)c2cn(C(C(=O)Nc3nccs3)c3ncn4c3C[C@@H](F)C4)nc12 (stereo partly drawn) [Example 2, 2-[4-(Difluoromethyl)-7-methyl-6-(4-morpholinophenyl)indazol-2-yl]-2-[(6R)-6-fluoro-6,7-dihydro-5H-pyrrolo[1,2-c]imidazol-1-yl]-N-thiazol-2-yl-acetamide]

hepatocyte CLint at 1 μM ([3]; human): 2.4 µL/min/1e6 cells
hepatocyte CLint at 1 μM ([3]; mouse): 36 µL/min/1e6 cells
SMILES: Cc1c(C#Cc2ccc(CN3CCC(CO)CC3)cc2)cc(C(F)F)c2cn(C(C(=O)Nc3nccs3)c3ncn4c3CCC4)nc12 (stereo not shown) [Example 5, 2-[4-(Difluoromethyl)-6-[2-[4-[[4-(hydroxymethyl)-1-piperidyl]methyl]phenyl]ethynyl]-7-methyl-indazol-2-yl]-2-(6,7-dihydro-5H-pyrrolo[1,2-c]imidazol-1-yl)-N-thiazol-2-yl-acetamide]

pIC50 [1]: 7.80
hepatocyte CLint at 1 μM ([3]; human): 1 µL/min/1e6 cells
hepatocyte CLint at 1 μM ([3]; mouse): 25 µL/min/1e6 cells
pIC50 [4]: 6.26
pIC50 [5]: 8.10
pIC50 [9]: 6.24
SMILES: Cc1c(C#Cc2ccc(CN3CCC(CO)CC3)cc2)cc(C(F)F)c2cn(C(C(=O)Nc3nccs3)c3ncn4c3CCC43CC3)nc12 (stereo not shown) [Example 6]
changes in body weight [8]: No significant changes in body weight
changes in body weight [6]: No significant changes in body weight

From patent publication US20260007678A1, “COMBINATION OF ALLOSTERIC AND ORTHOSTERIC EGFR INHIBITORS FOR THE TREATMENT OF CANCER” (Hoffmann-La Roche Inc., priority 2022, published 2026)
